The record followed here is US8598157B2, “5-alkynyl-pyridines” (Boehringer Ingelheim International GmbH, priority 2011, dated 2013).

One test addresses PI3Kalpha (Homo sapiens (Human), UniProt P42336). The test is described as follows: Inhibition of PI3Kalpha-induced PIP-2 phosphorylation (filter-binding assay). The test is classed as biochemical. To be noted: 33P-ATP, p85alpha/His-p110alpha, read-out: IC50 PI3Kα. The essentials:
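Radiometric filter-binding assay: PI3Kα (25 ng/well) preincubated 20 min at room temperature with compound and PIP2-containing lipid vesicles plus phosphotyrosine PDGFRβ peptide. Reaction started with cold ATP (1 μM final) and [33P]-ATP and run 120 min at room temperature; filter-captured radioactivity counted, IC50 from duplicate dilution series.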

Another test concerns H460 cells. The test is described as follows: alamarBlue H460 cell assay (antiproliferative/cytotoxicity). The test is classed as cell-based. As to conditions: NCI-H460; H460 human lung carcinoma cells. The essentials:
(§1)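 Readout is alamarBlue reduction by metabolically active cells, measured fluorometrically (excitation 530-560 nm, emission 590 nm) after 8 h at 37 °C. Compounds are applied for 5-6 days from a top final concentration of 10 μM in 1:3 steps, tested in duplicate. EC50 is derived from blank-corrected signals.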
In general terms: The colour change of resazurin is a common sign of viable cells or microbes.

A further test concerns MB453 cells. The test is described as follows: alamarBlue MB453 cell assay (antiproliferative/cytotoxicity). The class given is cell-based. To be noted: Homo sapiens; MDA MB 453 breast cancer cell line. The essentials: as §1
For another test, the system named is U87 cells. The test is described as follows: U87 cell assay (antiproliferative/cytotoxicity). As to conditions: U-87MG human glioblastoma cells. The test is classed as cell-based. The essentials:
as §1

For a further test, the system named is MCF7 cells. The test is described as follows: alamarBlue MCF7 cell assay (antiproliferative/cytotoxicity). The test is classed as cell-based. As to conditions: MCF7 human breast cancer cell line. The essentials: as §1
A further test deals with BT474 cells. Nature of the test: alamarBlue BT474 cell assay (antiproliferative/cytotoxicity). The class given is cell-based. As to conditions: BT-474 human breast cancer cell line. The essentials: as §1

pEC50, pIC50: −log10 of the molar value.

Chain of PI3Kalpha (P42336 whole entry): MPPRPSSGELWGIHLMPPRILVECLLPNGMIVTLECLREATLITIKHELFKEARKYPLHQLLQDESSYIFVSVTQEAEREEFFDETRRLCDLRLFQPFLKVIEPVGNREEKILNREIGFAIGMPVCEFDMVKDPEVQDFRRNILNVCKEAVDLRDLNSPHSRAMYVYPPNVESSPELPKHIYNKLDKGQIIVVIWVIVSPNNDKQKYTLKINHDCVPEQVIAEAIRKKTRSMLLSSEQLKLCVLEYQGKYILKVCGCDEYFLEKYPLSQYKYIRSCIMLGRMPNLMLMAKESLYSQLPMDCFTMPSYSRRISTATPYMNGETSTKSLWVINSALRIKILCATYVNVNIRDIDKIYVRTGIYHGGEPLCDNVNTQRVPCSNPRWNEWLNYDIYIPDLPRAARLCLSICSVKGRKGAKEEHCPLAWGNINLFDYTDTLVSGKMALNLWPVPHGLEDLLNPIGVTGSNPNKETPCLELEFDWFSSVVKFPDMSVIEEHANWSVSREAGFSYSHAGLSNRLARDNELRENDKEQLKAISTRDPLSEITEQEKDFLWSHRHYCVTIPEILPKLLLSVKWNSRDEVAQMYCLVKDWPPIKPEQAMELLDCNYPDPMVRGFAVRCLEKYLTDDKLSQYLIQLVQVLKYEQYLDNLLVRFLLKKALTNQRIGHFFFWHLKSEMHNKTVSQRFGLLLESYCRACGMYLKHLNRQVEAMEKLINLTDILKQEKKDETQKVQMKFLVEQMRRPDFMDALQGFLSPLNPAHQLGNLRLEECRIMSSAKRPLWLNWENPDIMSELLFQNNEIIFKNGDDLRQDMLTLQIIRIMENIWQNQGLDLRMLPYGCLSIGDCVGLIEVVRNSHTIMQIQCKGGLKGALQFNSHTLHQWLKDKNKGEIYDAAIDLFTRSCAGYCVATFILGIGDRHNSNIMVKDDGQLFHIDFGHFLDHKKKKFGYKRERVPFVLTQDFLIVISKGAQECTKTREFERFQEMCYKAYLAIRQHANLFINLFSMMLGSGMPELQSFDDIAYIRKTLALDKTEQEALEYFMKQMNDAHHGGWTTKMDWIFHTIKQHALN

Broadly, the pIC50 is the IC50 on a negative log10 scale, so that one unit is a factor of ten. The term pEC50 denotes the EC50 on a negative log10 scale, so that one unit is a factor of ten. Read a high pEC50 as a small EC50. As to `Cc1ncc(C#Cc2c(C)ncnc2N(C)C2CCOCC2)cc1NS(=O)(=O)c1ccc(F)cc1F` [Example I-16, 2,4-Difluoro-N-(2-methyl-5-{4-methyl-6-[methyl-(tetrahydro-pyran-4-yl)-amino]-pyrimidin-5-ylethynyl}-pyridin-3-yl)-benzenesulfonamide], the pIC50 at PI3Kalpha was 9.07. Moreover, the negative-log EC50 (pEC50) in the test on H460 cells is 6.65; in the test on MB453 cells, 6.40; in the test on U87 cells, 6.08; with MCF7 cells it was 6.93; in the test with BT474 cells, 6.51.
With `CCc1ncnc(N2CCOCC2)c1C#Cc1cnc(OC)c(NS(=O)(=O)c2ccccc2)c1` [Example I-26, N-[5-(4-Ethyl-6-morpholin-4-yl-pyrimidin-5-ylethynyl)-2-methoxy-pyridin-3-yl]-benzenesulfonamide], the pIC50 at PI3Kalpha is 9.23. Moreover, the pEC50 in the test with H460 cells is 7.68; in the test with MB453 cells it was 7.21; with U87 cells, 7.01; in the test with MCF7 cells, 8.05; with BT474 cells, 7.55.
